Assay results: patent EP0516725B1, “NEW USE OF LINOMIDE (R)” (Pharmacia AB (reg.number 556131-9608), priority 1990, dated 1991)

Legend:
[1] = test system: spleen T lymphocyte subpopulations; experiment: Spleen T lymphocyte subpopulations by direct immunofluorescence after treatment of mice; assay type: in vivo, C57B1/6 mice; conditions: 160 mg/kg/day in the drinking water for 4 days
Procedure: C57B1/6 mice were given Linomide® (160 mg/kg/day) in the drinking water for 4 days. Control animals were given ordinary drinking water. […] 134:3956, 1985] and examined for the expression of cell surface markers by direct immunofluorescence. The following FITC-labeled monoclonal antibodies were used: HO-134 (Thy 1.2), GK 1.5 (CD4) and 19. 178c (CD8) [for reference to antibodies see Kalland, T.: Regulation of NK progenitors: Studies with a novel immunmodulator with distinct effects at the precursor level, J. Immunol. 144:4472-6, 1990]. The number of positive cells was determined by counting 400 cells in an epifluoroscence equipped Leitz microscope. Values represent mean ± SD of three mice.

YAC-1 cells = experiment: Spleen NK activity, conventional 51Cr-release assay after treatment of mice; conditions: 160 mg/kg/day in the drinking water for four days; for % CYTOTOXICITY: 3 mice
Half life in mice = assay type: in vivo
[2] = Half life in cynomolgus monkeys; assay type: in vivo
Half life in humans = conditions: human, in vivo
SIVsm = SIVsm infection of cynomolgus monkeys (body weight, CD4 cells, virus isolation, clinical state); conditions: result in words
Description: Nine cynomolgus monkeys (Macaca Fascicularis) were used in this study. The mean body mass was 2600 g and the range was 2260 to 2930 g. The monkeys were housed in single cages in a biosafety level three facility. […] The absence of pre-existing retrovirus was further investigated by cocultivating monkey PBMC (=peripheral blood mononuclear cells) with human PHA-stimulated PBMC and testing of culture supernatants for reverse transcriptase activity.
Intraperitoneal treatment with Linomide® or NaCl started four days before challenge with live virus and subsequently every day (not during weekends) subcutaneosly during the time of follow-up. The follow-up is 75 days after live virus challenge. Monkeys L1-3 were treated with a low dose Linomide® 0.3 mg/kg bw x 2 Monkeys L4-6 were treated with a high dose Linomide® 3 mg/kg bw x 2 Monkeys L7-9 were given sodium chloride x 2 All monkeys were challenged with 10-100 animal ID₅₀ of live SIVsm. Animals were sacrificed when they became moribund.
T-lymphocyte subsets in peripheral blood were determined by immunofluorescence as previously described [Putkonen, P., Warstedt, K., Thorstensson, R., Benthin, R., Albert, J., Lundgren, B., Öberg, B., Norrby, E., Biberfeld, G.: Experimental infection of cynomolgus monkeys (Macaca Fascicularis with simian immunodeficiency virus (SIVsm), J. AIDS 1989:2, 359-365]. Peripheral blood samples were incubated with FITC-conjugated anti-CD4 (OKT4, Ortho) and anti-CD8 (Leu2, Becton Dickinson). The samples were analyzed in a Spectrum III flow cytometer (Ortho Diagnostics).

Half life in rats = conditions: rat, in vivo
[3] = spleen cells, mean ± SD of three mice

Q: Which “% Fluorescent cells CD4” value [1, 3] does the source give for CN(C(=O)c1c(O)c2ccccc2n(C)c1=O)c1ccccc1 [Linomide®, N-phenyl-N-methyl-1,2-dihydro-4-hydroxy-1-methyl-2-oxo-quinoline-3-carboxamide] here?
A: 28±2%

Q: And the “% Fluorescent cells CD8” value [1, 3]?
A: 10±3%

Q: And the “% Fluorescent cells Thy 1.2” value [1, 3]?
A: 42±5%

Q: And the “distribution of T lymphocyte subpopulations” value ([1]; result in words)?
A: do not significantly altler the distribution of T lymphocyte subpopulations

Q: What about the “% CYTOTOXICITY” value (YAC-1 cells; Effector cell: Target cell ratio 25:1) of the same compound?
A: 14±4%

Q: And the “% CYTOTOXICITY” value (YAC-1 cells; Effector cell: Target cell ratio 50:1)?
A: 20±4%

Q: What about the “% CYTOTOXICITY” value (YAC-1 cells; Effector cell: Target cell ratio 100:1) of the same compound?
A: 29±5%

Q: What about the NK activity (YAC-1 cells; result in words) of the same compound?
A: significantly enhances NK activity

Q: And the half life (Half life in mice)?
A: two

Q: And the half life [2]?
A: six

Q: And the half-life (Half life in humans)?
A: ~48 h

Q: And the “qualitative virus isolation assay” value (SIVsm; all monkeys (low dose, high dose and control), 14 days after challenge)?
A: virus could be isolated from all monkeys

Q: What about the body weight (SIVsm; high dose group (3 mg/kg bw x 2), one monkey) of the same compound?
A: dramatic reduction in body weight

Q: What about the “percentage of CD4⁺ cells in peripheral blood” value (SIVsm; low dose (0.3 mg/kg bw x 2)) of the same compound?
A: essentially unaltered

Q: What about the body weight (SIVsm; monkeys L1-3, 0.6 mg/kg/day) of the same compound?
A: Only a slight weight reduction

Q: What about the clinical condition (SIVsm; monkeys L1-3 = low dose (0.3 mg/kg bw x 2)) of the same compound?
A: remained clinically healthy

Q: And the half-life (Half life in rats)?
A: 24 h
